According to patent publication US4698350A, “1-ethyl-6-fluoro-1,4-dihydro- 7-(2,6-dimethyl-4-pyridinyl)-4-oxo-3-quinolinecarboxylic acid and antibacterial use thereof” (Sterling Drug Inc., priority 1984, dated 1987):
Values after ≈ are worked out from the molar mass of the structure shown. Read-outs that look alike come from different tables or passages of the source.

Assays:
[1] = system: Staphylococcus aureus 39881 (Methicillin-resistant); assay: Mouse protection test, S. aureus 39881 (methicillin-resistant) infection; assay type: in vivo, ICR mice; Staphylococcus aureus; settings: for Survivors/Total: two doses; for ED50: Staphylococcus aureus, 168 h, two doses one-half and four hours postinfection, read-out: Protective Dose 50% (95% Confidence Limits)
Procedure: (§1) ICR mice, female, 18-20 grams each.
(§2) Solutions of Win 52,522 and Win 35,439 were prepared by dissolving the appropriate weight of drug in 0.3 to 0.4 ml of 1 N NaOH and then bringing the solutions to the desired volume with distilled water. Methicillin and vancomycin were dissolved directly in distilled water.
The culture was streaked onto three Brain Heart Infusion Agar plates and incubated 16 hours at 37° C. The cells were washed off each plate with five ml of saline and the cell suspension was shaken with glass beads for two minutes on a paint shaker. The suspension was diluted with saline so that a […] gave a 44% T reading on a B+L Spectronic 20 (650 nm) calibrated with saline. The stock suspension was diluted 1:24 (10 ml stock suspension+230 ml 5% mucin) to obtain the test inoculum containing 1.55×10^9 cells/ml.
(§3) Mice were inoculated intraperitoneally with 0.5 ml of the bacterial test inoculum.
Mice were medicated twice: at one-half and four hours postinfection. The drugs were administered by both subcutaneous (0.2 ml) and oral (0.5 ml) routes.
(§4) Deaths were recorded daily for seven days for all tests. Fifty percent protective dose values (PD50's) were calculated using probit analysis [SAS Users Guide: Statistics, 1982 Edition, SAS Institute, Inc., Cary, N.C.].

[2] = system: Staphylococcus aureus Smith; assay: Mouse protection test, S. aureus Smith infection, single dose; assay type: in vivo, ICR mice; Staphylococcus aureus; settings: single dose; for ED50: Staphylococcus aureus, 168 h, read-out: Protective Dose 50% (95% Confidence Limits)
Procedure: as §1, §2
Two and one-half ml of pool were added to 247.5 ml of 5% gastric mucin to provide the test inoculum containing 2.1×10^4 cells/ml.
as §3
1. Single dose test--Mice were medicated subcutaneously or orally once (0.5 ml) one-half hour postinfection.
as §4

S. aureus = assay: In vitro MIC/MBC summary (Table II); assay type: cell-based; settings: Staphylococcus aureus
Procedure: (§5) Win 52,522 and Win 35,439 were solubilized in 0.1 ml of 0.5 N NaOH/mg of compound and diluted in sterile distilled water to 160 mcg/ml. Vancomycin and methicillin were solubilized in sterile distilled water to 1250 mcg/ml of base compound. The stock solutions were sterilized by filtration through membrane filters with a 0.45 μm pore size.
(§6) The bacterial cultures listed in Table I (hereinbelow) were grown overnight at 37° C. in MHB for all cultures except the Streptococcus strains. These were grown in BHI+10% NHS. The overnight broth cultures were adjusted to an optical density of 0.10 (650 nm, B L Spectronic 20) in sterile distilled water and subsequently diluted to 6.7×10^6 cells/ml in MHB or BHI+1% NHS.
(§7) Serial two-fold dilutions of the compound solutions were prepared in MHB (or in BHI+1% NHS for tests with Streptococci) and dispensed into 96-well microtiter trays in a volume of 0.1 ml/well using a Sandy Springs (Bellco Glass Co.) dispenser. The trays were then inoculated with 0.0015 ml of a suspension containing 6.7×10^6 cells/ml of the appropriate inoculum using a MIC-2000 inoculator (Dynatech Corp.) resulting in a final inoculum of approximately 1×10^4 cells/well or 1×10^5 cells/ml. The trays were incubated at 37° C. for 18-20 hours and the minimal inhibitory concentration (MIC), defined as the lowest concentration of compound to inhibit visible bacterial growth, was recorded.
(§8) After the MIC values were recorded, the contents in the microtiter trays were thoroughly mixed on a Bellco Mini-orbital Shaker (Bellco Glass Co.) for 3 min. at a setting of 8. A portion (0.0015 ml) from each well was then transferred via an MIC-2000 inoculator to plates containing MHA or BHI agar+10% NHS. The plates were incubated at 37° C. for 18-20 hrs. The minimal bactericidal concentration (MBC), defined as the lowest concentration of compound that prevented the formation of a recognizable colony on the agar surface, was recorded.

Streptococcus sp. = assay: In vitro MIC/MBC summary (Table II); assay type: cell-based; settings: 9 Streptococcus sp. strains
Procedure: as §5, §6, §7, §8

S. aureus S-500 = assay: In vitro antibacterial MIC/MBC test; assay type: cell-based; settings: Staphylococcus aureus, S500, S. aureus S-500
Procedure: as §5, §6, §7, §8

S. pyogenes (89) = assay: In vitro antibacterial MIC/MBC test; assay type: cell-based; settings: Streptococcus pyogenes, S. pyogenes SWRI No. 89
Procedure: as §5, §6, §7, §8

S. pyogenes C203 = assay: In vitro antibacterial MIC/MBC test; assay type: cell-based; settings: Streptococcus pyogenes, S. pyogenes C203
Procedure: as §5, §6, §7, §8

S. aureus 10-81 = assay: In vitro antibacterial MIC/MBC test; assay type: cell-based; settings: Staphylococcus aureus, 1081, S. aureus 10-81
Procedure: as §5, §6, §7, §8

S. epidermidis 1-5-H = assay: In vitro antibacterial MIC/MBC test; assay type: cell-based; settings: Staphylococcus epidermidis, 15H, S. epidermidis 1-5-H
Procedure: as §5, §6, §7, §8

S. faecalis (11700) = assay: In vitro antibacterial MIC/MBC test; assay type: cell-based; settings: Enterococcus faecalis, ATCC11700, S. faecalis ATCC No. 11700
Procedure: as §5, §6, §7, §8

S. aureus 34-81 = assay: In vitro antibacterial MIC/MBC test; assay type: cell-based; settings: Staphylococcus aureus, 3481, S. aureus 34-81
Procedure: as §5, §6, §7, §8

S. pneumoniae Type III = assay: In vitro antibacterial MIC/MBC test; assay type: cell-based; settings: Streptococcus pneumoniae, S. pneumoniae Type III
Procedure: as §5, §6, §7, §8

S. aureus Glorgio = assay: In vitro antibacterial MIC/MBC test; assay type: cell-based; settings: Staphylococcus aureus, S. aureus Glorgio
Procedure: as §5, §6, §7, §8

With `CCn1cc(C(=O)O)c(=O)c2ccc(-c3cc(C)nc(C)c3)cc21` [Win 35,439, 1-ethyl-1,4-dihydro-7-(2,6-dimethyl-4-pyridinyl)-4-oxo-3-quinolinecarboxylic acid] the Survivors/Total ([1]; 1.56 mg/kg po) was 1/10, the Survivors/Total ([1]; 1.56 mg/kg sc) was 0/10 and the Survivors/Total ([1]; 3.13 mg/kg po) was 0/10. For the same compound, the Survivors/Total ([1]; 3.13 mg/kg sc) was 0/10, the Survivors/Total ([1]; 6.25 mg/kg po) was 3/10 and the Survivors/Total ([1]; 6.25 mg/kg sc) was 9/10. The Survivors/Total ([1]; 12.5 mg/kg po) was 10/10, the Survivors/Total ([1]; 12.5 mg/kg sc) was 7/10 and the ED50 ([1]; po) was 7.2 mg/kg. For the same compound, the ED50 ([1]; sc) was about 4.9 mg/kg, the Survivors/Total ([2]; 0.39 mg/kg po) was 0/10 and the Survivors/Total ([2]; 0.78 mg/kg po) was 1/10. For the same compound, the Survivors/Total ([2]; 0.78 mg/kg sc) was 1/10, the Survivors/Total ([2]; 1.56 mg/kg po) was 0/10 and the Survivors/Total ([2]; 1.56 mg/kg sc) was 0/10. For the same compound, the Survivors/Total ([2]; 3.13 mg/kg po) was 0/10, the Survivors/Total ([2]; 3.13 mg/kg sc) was 6/10 and the Survivors/Total ([2]; 6.25 mg/kg po) was 7/10. The Survivors/Total ([2]; 6.25 mg/kg sc) was 10/10, the ED50 ([2]; po) was about 5.5 mg/kg and the ED50 ([2]; sc) was 2.9 mg/kg. For the same compound, the MBC (S. aureus; read-out: MBC 50%) was 0.25 µg/mL (≈ 0.776 µM), the MBC (S. aureus; read-out: MBC 90%) was 0.5 µg/mL (≈ 1.55 µM) and the MBC (S. aureus; read-out: MBC Range) was 0.125 to 0.5 µg/mL (≈ 0.388 to 1.55 µM). It also gave an MIC50 (S. aureus; 15 S. aureus strains, read-out: MIC 50%) of 0.06 µg/mL (≈ 0.186 µM), an MIC90 (S. aureus; 15 S. aureus strains, read-out: MIC 90%) of 0.125 µg/mL (≈ 0.388 µM) and an MIC (S. aureus; 15 S. aureus strains, read-out: MIC Range) of 0.03 to 0.125 µg/mL (≈ 0.0931 to 0.388 µM). For the same compound, the MBC (Streptococcus sp.; read-out: MBC 50%) was 2 µg/mL (≈ 6.2 µM), the MBC (Streptococcus sp.; read-out: MBC 90%) was over 16 µg/mL and the MIC50 (Streptococcus sp.; read-out: MIC 50%) was 2 µg/mL (≈ 6.2 µM). The MIC90 (Streptococcus sp.; read-out: MIC 90%) was 4 µg/mL (≈ 12.4 µM), the MIC (Streptococcus sp.; read-out: MIC Range) was 0.5 to 4 µg/mL (≈ 1.55 to 12.4 µM) and the MBC (S. aureus S-500; read-out: MBC) was 0.25 µg/mL (≈ 0.776 µM). The MIC (S. aureus S-500; read-out: MIC) was 0.125 µg/mL (≈ 0.388 µM), the MBC (S. pyogenes (89); read-out: MBC) was over 16 µg/mL and the MIC (S. pyogenes (89); read-out: MIC) was 4 µg/mL (≈ 12.4 µM). It also gave an MBC (S. pyogenes C203; read-out: MBC) of over 16 µg/mL, an MIC (S. pyogenes C203; read-out: MIC) of 4 µg/mL (≈ 12.4 µM) and an MBC (S. aureus 10-81; read-out: MBC) of 0.125 µg/mL (≈ 0.388 µM). It also gave an MIC (S. aureus 10-81; read-out: MIC) of 0.125 µg/mL (≈ 0.388 µM), an MBC (S. epidermidis 1-5-H; read-out: MBC) of 0.25 µg/mL (≈ 0.776 µM) and an MIC (S. epidermidis 1-5-H; read-out: MIC) of 0.25 µg/mL (≈ 0.776 µM). It also gave an MBC (S. faecalis (11700); read-out: MBC) of 1 µg/mL (≈ 3.1 µM), an MIC (S. faecalis (11700); read-out: MIC) of 1 µg/mL (≈ 3.1 µM) and an MBC (S. aureus 34-81; read-out: MBC) of 0.06 µg/mL (≈ 0.186 µM). It also gave an MIC (S. aureus 34-81; read-out: MIC) of 0.06 µg/mL (≈ 0.186 µM), an MBC (S. pneumoniae Type III; read-out: MBC) of 4 µg/mL (≈ 12.4 µM) and an MIC (S. pneumoniae Type III; read-out: MIC) of 4 µg/mL (≈ 12.4 µM). For the same compound, the MBC (S. aureus Glorgio; read-out: MBC) was 0.125 µg/mL (≈ 0.388 µM) and the MIC (S. aureus Glorgio; read-out: MIC) was 0.03 µg/mL (≈ 0.0931 µM).
